Results published in patent US7132456B2, “MCH receptor antagonists” (Eli Lilly and Company, priority 2002, dated 2006).
Structures can show the parent of a compound that is named as a salt. Where two headings read alike, the source gives them in different places.

How the values were obtained:
[1] = target: T1, human MCHR1 (Homo sapiens, UniProt Q99705); assay: 125I-MCH competitive binding assay on clone 43 membranes (MCHR1 binding); conditions: competitive binding vs 100 pM 125I-MCH, clone 43 membranes (AV12 cells expressing MCHR1), Ki from IC50 by Cheng-Prusoff, tested in duplicate, read-out: MCHr Binding Ki
T1 construct: The full-length cDNA for human MCHR1 was cloned; expressed in transfected cells; host or cells: AV12 cells previously transfected with Gα15
T1 sequence (Q99705 whole entry): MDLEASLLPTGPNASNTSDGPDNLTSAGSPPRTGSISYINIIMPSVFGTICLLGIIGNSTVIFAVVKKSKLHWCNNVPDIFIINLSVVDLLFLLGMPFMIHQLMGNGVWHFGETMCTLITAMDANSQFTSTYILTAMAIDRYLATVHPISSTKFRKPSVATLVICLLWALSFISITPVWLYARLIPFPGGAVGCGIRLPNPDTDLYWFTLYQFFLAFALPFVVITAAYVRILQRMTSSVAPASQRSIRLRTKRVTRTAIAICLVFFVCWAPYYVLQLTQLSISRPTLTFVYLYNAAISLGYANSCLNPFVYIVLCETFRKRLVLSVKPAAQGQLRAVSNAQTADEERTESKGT
Experimental: The full-length cDNA for human MCHR1 was cloned from a human adult brain cDNA library (Edge Biosystems, Cat. 38356) by standard polymerase chain reaction (PCR) methodology employing the following primers: sense, 5′-GCCACCATGGACCT GGAAGCCTCGCTGC-3′; anti-sense, 5′-[…]-3′. The PCR reaction was performed in a final volume of 50 μL containing 5 μL of a 10× stock solution of PCR buffer, 1 μL of 10 mM dNTP mixture (200 μM final), 2 μL of 50 mM Mg(SO4) (2 mM final), 0.5 μL of 20 μM solutions of each primer (0.2 μM final), 5 μL of template cDNA containing 0.5 ng DNA, 0.5 μL of Platinum Taq High Fidelity DNA polymerase (Gibco Life Technologies) and 36 μL of H2O. PCR amplification was performed on a Perkin Elmer 9600 thermocycler. After denaturation for 90 sec at 94° C., the amplification sequence consisting of 94° C. for 25 sec, 55° C. for 25 sec and 72° C. for 2 min was repeated 30 times, followed by a final elongation step at 72° C. for 10 min. The desired PCR product (1.1 Kb) was confirmed by agarose gel electrophoresis and the band was extracted from the gel by Geneclean (Bio101) following the manufacturer's instructions. Following extraction, the cDNA fragment was cloned into pCR2.1-TOPO plasmid (Invitrogen) to confirm the identity and sequence.
In order to generate cell lines stably expressing MCHR1, the insert was then subcloned into the Xba I and Not I sites of pcDNA(+)-3.1-neomycin (Invitrogen). After purification by Qiagen Maxi-prep kit (QIAGEN, Inc.), the plasmid was transfected by Fugene 6 (Roche Applied Science) into AV12 cells that had been previously transfected with the promiscuous G protein Gα15. The transfected cells were selected by G418 (800 μg/mL) for 10–14 days and single colonies were isolated from culture plates. The G418-resistant colonies were further selected for MCHR1 expression by measuring MCH-stimulated Ca^2+ transients with a fluorometric imaging plate reader (FLIPR, Molecular Devices).
Both the ^125I-MCH binding and functional GTPγ^35S binding assays employed membranes isolated from a clone designated as clone 43. Typically, cells from 20 confluent T225 flasks were processed by washing the monolayers in cold phosphate-buffered saline (PBS), scraping the cells into same and re-suspending the cell pellet in 35 mL of 250 mM Sucrose, 50 mM HEPES, pH 7.5, 1 mM MgCl2, 24 μg/mL DNase I, and protease inhibitors (1 Complete® tablet, per 50 ml of buffer prepared, Roche Diagnostics). After incubation on ice for 5 min, cells were disrupted with 20–25 strokes of a Teflon/Glass homogenizer attached to an overhead motorized stirrer, and the homogenate was centrifuged at 40,000 rpm in Beckman Type 70.1 Ti rotor. The pellets were re-suspended in 250 mM Sucrose, 50 mM HEPES, pH 7.5, 1.5 mM CaCl2, 1 mM MgSO4 and protease inhibitors by Teflon/Glass homogenization to achieve a protein concentration of ˜3–5 mg/ml (Pierce BCA assay with Bovine serum albumin as standard). Aliquots were stored at −70° C.
Binding of compounds to MCHR1 was assessed in a competitive binding assay employing ^125I-MCH, compound and clone 43 membranes. Briefly, assays are carried out in 96-well Costar 3632 white opaque plates in a total volume of 200 μl containing 25 mM HEPES, pH 7.5, 10 mM CaCl2, 2 mg/ml bovine serum albumin, 0.5% dimethyl sulfoxide (DMSO), 4 μg of clone 43 membranes, 100 pM ^125I-MCH (NEN), 1.0 mg of wheat germ agglutinin scintillation proximity assay beads (WGA-SPA beads, Amersham) and a graded dose of test compound. Non-specific binding is assessed in the presence of 1 μM unlabeled MCH. Bound ^125I-MCH is determined by placing sealed plates in a Microbeta Trilux (Wallac) and counting after a 5 hr delay.
IC50 values (defined as the concentration of test compound required to reduce specific binding of ^125I-MCH by 50%) are determined by fitting the concentration-response data to a 4-parameter model (max response, min response, Hill coefficient, IC50) using Excel. […]

| Compound | Ki [1] | melting point | Ki ([1]; oxalate) |
| --- | --- | --- | --- |
| CN(C)CCCNC(=O)c1cccc(-c2cccc(CSCCOc3ccccc3)c2)c1.O=C(O)C(=O)O [Example 13, 3′-(2-phenoxy-ethylsulfanylmethyl)-biphenyl-3-carboxylic acid (3-dimethylamino-propyl)-amide oxalate] | 8.76 µM | 51 to 53 °C | – |
| CN(C)CCCNC(=O)c1ccc(-c2ccccc2CSCCOc2ccccc2)cc1 [Example 24, 2′-(2-phenoxy-ethylsulfanylmethyl)-biphenyl4-carboxylic acid (3-dimethylamino-propyl)-amide] | 6.13 µM | 98 to 100 °C | – |
| CN(C)CCCNC(=O)c1cccc(-c2ccccc2CSCCOc2ccccc2)c1.O=C(O)C(=O)O [Example 21, 2′-(2-phenoxy-ethylsulfanylmethyl)-biphenyl-3-carboxylic acid (3-dimethylamino-propyl)-amide oxalate] | 8.55 µM | 97 to 100 °C | – |
| CN(C)CCCCNC(=O)c1ccc(-c2cccc(CSCCOc3ccccc3)c2)cc1.O=C(O)C(=O)O [Example 16, 3′-(2-phenoxy-ethylsulfanylmethyl)-biphenyl4-carboxylic acid (4-dimethylamino-butyl)-amide oxalate] | 8.96 µM | 85 to 89 °C | – |
| CN(C)CCCNC(=O)c1ccc(-c2ccc(CSCCOc3ccccc3)cc2)cc1 (as salt: hydrochloride) | – | 112 to 115 °C | – |
| CN(C)CCCCNC(=O)c1ccc(-c2ccccc2CSCCOc2ccccc2)cc1 [Example 25, 2′-(2-phenoxy-ethylsulfanylmethyl)-biphenyl4-carboxylic acid (4-dimethylamino-butyl)-amide] | 6.89 µM | – | – |
| 4′-(2-phenoxy-ethylsulfanylmethyl)-biphenyl-4-carboxylic acid (2-dimethylamino-ethyl)-amide oxalate [Example 4] | – | – | 11.7 µM |
| CN(C)CCCNC(=O)c1ccc(-c2cccc(CSCCOc3ccccc3)c2)cc1.O=C(O)C(=O)O [Example 15, 3′-(2-phenoxy-ethylsulfanylmethyl)-biphenyl4-carboxylic acid (3-dimethylamino-propyl)-amide oxalate] | 1.95 µM | 133 to 137 °C | – |
| CN(C)CCNC(=O)c1ccc(-c2cccc(CSCCOc3ccccc3)c2)cc1 [Example 14, 3′-(2-phenoxy-ethylsulfanylmethyl)-biphenyl-4-carboxylic acid (2-dimethylamino-ethyl)-amide] | 1.47 µM | 75 to 78 °C | – |
| CN(C)CCNC(=O)c1ccc(-c2ccccc2CSCCOc2ccccc2)cc1 [Example 23, 2′-(2-phenoxy-ethylsulfanylmethyl)-biphenyl4-carboxylic acid (2-dimethylamino-ethyl)-amide] | 7.2 µM | 93 to 96 °C | – |
| 2′-(2-phenoxy-ethylsulfanylmethyl)-biphenyl-3-carboxylic acid (4-dimethylamino-butyl)-amide oxalate [Example 22] | 10.8 µM | – | – |

Second part, led by results:

| Ki [1] | melting point | Compound | Ki ([1]; oxalate) |
| --- | --- | --- | --- |
| 16.3 µM | 72 to 76 °C | CN(C)CCCCNC(=O)c1ccccc1-c1ccc(CSCCOc2ccccc2)cc1.O=C(O)C(=O)O [Example 9, 4′-(2-phenoxy-ethylsulfanylmethyl)-biphenyl-2-carboxylic acid (4-dimethylamino-butyl)-amide oxalate] | – |
| 10.7 µM | 144 to 147 °C | CN(C)CCCCNC(=O)c1cccc(-c2ccc(CSCCOc3ccccc3)cc2)c1.O=C(O)C(=O)O [Example 3, 4′-(2-phenoxy-ethylsulfanylmethyl)-biphenyl-3-carboxylic acid (4-dimethylamino-butyl)-amide oxalate] | – |
| – | 150 to 153 °C | CN(C)CCNC(=O)c1ccccc1-c1cccc(CSCCOc2ccccc2)c1.Cl | – |
| – | 64 to 70 °C | CN(C)CCCCNC(=O)c1ccccc1-c1ccccc1CSCCOc1ccccc1.O=C(O)C(=O)O | – |
| 11.4 µM | 96 to 100 °C | CN(C)CCNC(=O)c1cccc(-c2ccccc2CSCCOc2ccccc2)c1.O=C(O)C(=O)O [Example 20, 2′-(2-phenoxy-ethylsulfanylmethyl)-biphenyl-3-carboxylic acid (2-dimethylamino-ethyl)-amide oxalate] | – |
| 10.1 µM | 142 to 147 °C | CN(C)CCCCNC(=O)c1ccc(-c2ccc(CSCCOc3ccccc3)cc2)cc1.O=C(O)C(=O)O [Example 6, 4′-(2-phenoxy-ethylsulfanylmethyl)-biphenyl-4-carboxylic acid (4-dimethylamino-butyl)-amide oxalate] | – |
| – | 46 to 50 °C | CN(C)CCNC(=O)c1ccccc1-c1ccccc1CSCCOc1ccccc1.O=C(O)C(=O)O | – |
| 7.52 µM | 88 to 93 °C | CN(C)CCNC(=O)c1cccc(-c2ccc(CSCCOc3ccccc3)cc2)c1.O=C(O)C(=O)O [Example 2, 4′-(2-phenoxy-ethylsulfanylmethyl)-biphenyl-3-carboxylic acid (2-dimethylamino-ethyl)-amide oxalate] | – |
| – | 109 to 113 °C | CN(C)CCNC(=O)c1ccccc1-c1ccc(CSCCOc2ccccc2)cc1.O=C(O)C(=O)O | – |
| 5.04 µM | 132 to 133.5 °C | CN(C)CCCNC(=O)c1cccc(-c2ccc(CSCCOc3ccccc3)cc2)c1.O=C(O)C(=O)O [Example 1, 4′-(2-phenoxy-ethylsulfanylmethyl)-biphenyl-3-carboxylic acid(3-dimethylamino-propyl)-amide oxalate] | – |
